Experimental data taken from PubChem BioAssay AID248 (DTP/NCI, 2004).
Values joined by “and” are separate entries in the source; they are usually repeats but may differ in a detail not shown here. Identical values can stand only once. Toxic doses and inconclusive results are not listed.

System: L1210 leukemia ip in BDF1 mice, survival T/C
Assay: NCI In Vivo Anticancer Drug Screen. Data for tumor model L1210 Leukemia (intraperitoneal) in B6D2F1 (BDF1) mice
Conditions: endpoint: mean survival time, higher = longer survival
Method in brief: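 Survival endpoint. Drug-treated group vs vehicle group, expressed as T divided by C. Tumor passaged by transplantation.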

[1] = dose: 100.0 mg/kg/injection, schedule: Q01DX001 (ip), vehicle: saline
[2] = dose: 200.0 mg/kg/injection, schedule: Q01DX001 (ip), vehicle: saline
[3] = dose: 400.0 mg/kg/injection, schedule: Q01DX001 (ip), vehicle: saline
[4] = dose: 100.0 mg/kg/injection, schedule: Q04DX003 (ip), vehicle: saline
[5] = dose: 200.0 mg/kg/injection, schedule: Q04DX003 (ip), vehicle: saline
[6] = dose: 400.0 mg/kg/injection, schedule: Q04DX003 (ip), vehicle: saline
[7] = dose: 50.0 mg/kg/injection, schedule: Q01DX001 (ip), vehicle: carboxymethylcellulose (CMC)
[8] = dose: 50.0 mg/kg/injection, schedule: Q01DX001 (ip), vehicle: saline
[9] = dose: 100.0 mg/kg/injection, schedule: Q01DX001 (ip), vehicle: carboxymethylcellulose (CMC)
[10] = dose: 100.0 mg/kg/injection, schedule: Q01DX001 (ip), vehicle: other
[11] = dose: 200.0 mg/kg/injection, schedule: Q01DX001 (ip), vehicle: carboxymethylcellulose (CMC)
[12] = dose: 200.0 mg/kg/injection, schedule: Q01DX001 (ip), vehicle: other
[13] = dose: 400.0 mg/kg/injection, schedule: Q01DX001 (ip), vehicle: carboxymethylcellulose (CMC)
[14] = dose: 100.0 mg/kg/injection, schedule: Q04DX002 (ip), vehicle: Klucel (hydroxypropylcellulose) (HPC)
[15] = dose: 200.0 mg/kg/injection, schedule: Q04DX002 (ip), vehicle: Klucel (hydroxypropylcellulose) (HPC)
[16] = dose: 100.0 mg/kg/injection, schedule: Q01DX009 (ip), vehicle: Klucel (hydroxypropylcellulose) (HPC)
[17] = dose: 200.0 mg/kg/injection, schedule: Q01DX009 (ip), vehicle: Klucel (hydroxypropylcellulose) (HPC)
[18] = dose: 400.0 mg/kg/injection, schedule: Q01DX009 (ip), vehicle: Klucel (hydroxypropylcellulose) (HPC)

## CCOC(=O)/C=C(/Nc1ccc(OC)cc1[N+](=O)[O-])C(=O)OCC
[1]
  T/C: 95 % of control
[2]
  T/C: 95 % of control
[3]
  T/C: 104 % of control

## CN(C)CCCOC(=O)C1C2CC3OC(=O)C1C3C2 (stereo not drawn)
[4]
  T/C: 93 % of control
[5]
  T/C: 96 % of control
[6]
  T/C: 101 % of control

## CNC(=O)OCCOC(=O)c1ccc(OC(=O)NC)cc1
dose: 25.0 mg/kg/injection, schedule: Q01DX001 (ip), vehicle: carboxymethylcellulose (CMC)
  T/C: 109 % of control
dose: 25.0 mg/kg/injection, schedule: Q01DX001 (ip), vehicle: other
  T/C: 96 % of control
dose: 25.0 mg/kg/injection, schedule: Q01DX001 (ip), vehicle: saline
  T/C: 95 % of control
dose: 45.0 mg/kg/injection, schedule: Q01DX001 (ip), vehicle: saline
  T/C: 91 % of control
[7]
  T/C: 93 % of control
dose: 50.0 mg/kg/injection, schedule: Q01DX001 (ip), vehicle: other
  T/C: 100 % of control
[8]
  T/C: 96 % of control
dose: 67.0 mg/kg/injection, schedule: Q01DX001 (ip), vehicle: saline
  T/C: 100 % of control
[9]
  T/C: 103 % of control and 92 % of control
[10]
  T/C: 94 % of control
[1]
  T/C: 95 % of control and 101 % of control and 202 % of control
dose: 150.0 mg/kg/injection, schedule: Q01DX001 (ip), vehicle: saline
  T/C: 95 % of control
[11]
  T/C: 97 % of control and 101 % of control
[12]
  T/C: 96 % of control
[2]
  T/C: 88 % of control and 90 % of control
[13]
  T/C: 97 % of control
[3]
  T/C: 93 % of control and 90 % of control

## O=[N+]([O-])c1ccc(N/N=C(\c2ccccc2)C2CCC2)c([N+](=O)[O-])c1
dose: 50.0 mg/kg/injection, schedule: Q04DX002 (ip), vehicle: Klucel (hydroxypropylcellulose) (HPC)
  T/C: 99 % of control
[14]
  T/C: 96 % of control
[15]
  T/C: 96 % of control

## Oc1ccccc1-c1nc2ccccc2[nH]1
[14]
  T/C: 109 % of control
[15]
  T/C: 98 % of control
dose: 400.0 mg/kg/injection, schedule: Q04DX002 (ip), vehicle: Klucel (hydroxypropylcellulose) (HPC)
  T/C: 95 % of control

## CCCCCCCCCCCCOc1ccc(Sc2ccc([N+](=O)[O-])cc2)cc1
dose: 100.0 mg/kg/injection, schedule: Q01DX001 (ip), vehicle: Klucel (hydroxypropylcellulose) (HPC)
  T/C: 95 % of control
dose: 200.0 mg/kg/injection, schedule: Q01DX001 (ip), vehicle: Klucel (hydroxypropylcellulose) (HPC)
  T/C: 87 % of control
dose: 400.0 mg/kg/injection, schedule: Q01DX001 (ip), vehicle: Klucel (hydroxypropylcellulose) (HPC)
  T/C: 90 % of control

## Nc1ccccc1C(=O)O
[7]
  T/C: 98 % of control
[9]
  T/C: 91 % of control
dose: 178.0 mg/kg/injection, schedule: Q01DX001 (ip), vehicle: carboxymethylcellulose (CMC)
  T/C: 92 % of control
[11]
  T/C: 91 % of control
dose: 267.0 mg/kg/injection, schedule: Q01DX001 (ip), vehicle: carboxymethylcellulose (CMC)
  T/C: 94 % of control
[13]
  T/C: 92 % of control
dose: 600.0 mg/kg/injection, schedule: Q01DX001 (ip), vehicle: carboxymethylcellulose (CMC)
  T/C: 92 % of control

## CCN(CC)CCn1c2ccccc2c2cc3cnccc3c(C)c21
dose: 18.75 mg/kg/injection, schedule: Q01DX009 (ip), vehicle: saline
  T/C: 109 % of control
dose: 37.5 mg/kg/injection, schedule: Q01DX009 (ip), vehicle: saline
  T/C: 109 % of control
dose: 37.5 mg/kg/injection, schedule: Q04DX003 (ip), vehicle: Klucel (hydroxypropylcellulose) (HPC)
  T/C: 106 % of control
dose: 75.0 mg/kg/injection, schedule: Q01DX009 (ip), vehicle: saline
  T/C: 114 % of control
dose: 75.0 mg/kg/injection, schedule: Q04DX003 (ip), vehicle: Klucel (hydroxypropylcellulose) (HPC)
  T/C: 105 % of control
dose: 150.0 mg/kg/injection, schedule: Q01DX009 (ip), vehicle: saline
  T/C: 89 % of control
dose: 150.0 mg/kg/injection, schedule: Q04DX003 (ip), vehicle: Klucel (hydroxypropylcellulose) (HPC)
  T/C: 87 % of control

## Cc1ccc2no[n+]([O-])c2c1
dose: 20.0 mg/kg/injection, schedule: Q01DX009 (ip), vehicle: Klucel (hydroxypropylcellulose) (HPC)
  T/C: 111 % of control
dose: 40.0 mg/kg/injection, schedule: Q01DX009 (ip), vehicle: Klucel (hydroxypropylcellulose) (HPC)
  T/C: 108 % of control

## COC(=O)c1ccc(OC(=O)Nc2ccc(F)c([N+](=O)[O-])c2)cc1
[16]
  T/C: 101 % of control
[17]
  T/C: 104 % of control

## c1ccc(CNNC2=NCCN2)cc1
dose: 15.0 mg/kg/injection, schedule: Q01DX009 (ip), vehicle: saline
  T/C: 103 % of control
dose: 31.0 mg/kg/injection, schedule: Q01DX009 (ip), vehicle: saline
  T/C: 102 % of control
[8]
  T/C: 103 % of control
dose: 62.5 mg/kg/injection, schedule: Q01DX009 (ip), vehicle: saline
  T/C: 92 % of control
[1]
  T/C: 114 % of control

## O=C(O)CCC(=O)c1ccc(Cl)cc1
dose: 6.25 mg/kg/injection, schedule: Q01DX009 (ip), vehicle: saline with Tween-80
  T/C: 88 % of control
dose: 12.5 mg/kg/injection, schedule: Q01DX009 (ip), vehicle: saline with Tween-80
  T/C: 90 % of control
dose: 25.0 mg/kg/injection, schedule: Q01DX009 (ip), vehicle: saline with Tween-80
  T/C: 97 % of control

## COc1ccc(C=O)c(Cl)c1OC
[16]
  T/C: 94 % of control
[4]
  T/C: 92 % of control
[17]
  T/C: 94 % of control
[5]
  T/C: 108 % of control
[6]
  T/C: 98 % of control

## CCCCCCCC(=O)N1C2CN3C4=C(C(=O)C(N)=C(C)C4=O)C(COC(N)=O)C3(OC)C21 (stereo not drawn)
dose: 6.6 mg/kg/injection, schedule: Q01DX001 (ip), vehicle: acetone
  T/C: 115 % of control
dose: 9.9 mg/kg/injection, schedule: Q01DX001 (ip), vehicle: acetone
  T/C: 113 % of control

## COc1ccc(Cl)cc1-c1c(C(=O)O)cccc1[N+](=O)[O-]
dose: 100.0 mg/kg/injection, schedule: Q01DX001 (ip), vehicle: gum acacia
  T/C: 108 % of control
dose: 100.0 mg/kg/injection, schedule: Q04DX003 (ip), vehicle: gum acacia
  T/C: 102 % of control
dose: 200.0 mg/kg/injection, schedule: Q01DX001 (ip), vehicle: gum acacia
  T/C: 102 % of control
dose: 200.0 mg/kg/injection, schedule: Q04DX003 (ip), vehicle: gum acacia
  T/C: 102 % of control
dose: 400.0 mg/kg/injection, schedule: Q01DX001 (ip), vehicle: gum acacia
  T/C: 102 % of control
dose: 400.0 mg/kg/injection, schedule: Q04DX003 (ip), vehicle: gum acacia
  T/C: 90 % of control

## Cc1nc(N)[nH]c(=O)c1NC(=O)c1ccc(N)cc1
dose: 12.5 mg/kg/injection, schedule: Q04DX002 (ip), vehicle: saline with Tween-80
  T/C: 101 % of control
dose: 25.0 mg/kg/injection, schedule: Q04DX002 (ip), vehicle: saline with Tween-80
  T/C: 96 % of control
dose: 50.0 mg/kg/injection, schedule: Q04DX002 (ip), vehicle: saline with Tween-80
  T/C: 99 % of control

## O=C(O)c1cccc(Cl)c1
[16]
  T/C: 100 % of control
[17]
  T/C: 100 % of control
[18]
  T/C: 86 % of control

## CC(C)c1cccc(C(C)C)c1OC(=O)Nc1ccccc1Cl
[16]
  T/C: 105 % of control
dose: 100.0 mg/kg/injection, schedule: Q04DX003 (ip), vehicle: Klucel (hydroxypropylcellulose) (HPC)
  T/C: 100 % of control
[17]
  T/C: 89 % of control
dose: 200.0 mg/kg/injection, schedule: Q04DX003 (ip), vehicle: Klucel (hydroxypropylcellulose) (HPC)
  T/C: 102 % of control
[18]
  T/C: 89 % of control
dose: 400.0 mg/kg/injection, schedule: Q04DX003 (ip), vehicle: Klucel (hydroxypropylcellulose) (HPC)
  T/C: 103 % of control

## CC(C)=CCc1cccc(C)c1
dose: 50.0 mg/kg/injection, schedule: Q01DX009 (ip), vehicle: saline with Tween-80
  T/C: 94 % of control
dose: 100.0 mg/kg/injection, schedule: Q01DX009 (ip), vehicle: saline with Tween-80
  T/C: 98 % of control
dose: 200.0 mg/kg/injection, schedule: Q01DX009 (ip), vehicle: saline with Tween-80
  T/C: 105 % of control

## O=C([O-])c1ccccc1[I+]c1ccc(C2CCCCC2)cc1
[8]
  T/C: 100 % of control
[1]
  T/C: 100 % of control
[2]
  T/C: 105 % of control
[3]
  T/C: 103 % of control

## CN1c2ccc(Br)c[c]2[Sn]([CH3])([CH3])[c]2cc(Br)ccc21
[10]
  T/C: 96 % of control
[12]
  T/C: 97 % of control
dose: 400.0 mg/kg/injection, schedule: Q01DX001 (ip), vehicle: other
  T/C: 92 % of control
